Source: patent US20260242350A1, “POLYCYCLIC THYROID HORMONE BETA RECEPTOR AGONIST AND USE THEREOF” (CASCADE PHARMACEUTICALS, INC., priority 2023, published 2026)

Experiments:
[1] = molecular target: T1, THRα LBD (His-GST-dLBT-THRα LBD) (Homo sapiens, UniProt P10827); experiment: THR-FRET (time-resolved fluorescence resonance energy transfer) agonist activity assay, THRα; format: biochemical; settings: 24 h at room temperature
T1 construct: made in house; host or cells: E. coli BL21 (DE3)
T1 sequence (P10827 163-407 isoform P10827-2): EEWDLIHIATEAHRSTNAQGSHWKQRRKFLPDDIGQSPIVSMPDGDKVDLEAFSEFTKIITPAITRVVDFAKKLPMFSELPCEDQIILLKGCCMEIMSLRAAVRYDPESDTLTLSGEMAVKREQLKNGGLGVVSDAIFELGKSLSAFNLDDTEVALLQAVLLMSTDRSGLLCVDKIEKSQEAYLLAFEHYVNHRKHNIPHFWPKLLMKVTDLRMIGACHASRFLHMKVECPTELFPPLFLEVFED
Source text: (§1) Experimental Example 1: Detection of Agonist Activities of Compounds Against THRα/β Based on Time-Resolved Fluorescence Resonance Energy Transfer (THR-FRET)
(§2) 1. Construction of THRα/β Overexpression Vectors
(§3) By visiting NCBI, the THRα/β LBD domain sequences were found. The pET21-His-GST-dLBT-THRα LBD and pET21-His-GST-dLBT-THRβLBD overexpression vectors were constructed by the fusion method, and sequenced to confirm the accuracy of the sequences.
(§4) 2. Prokaryotic Expression of Recombinant Proteins in E. coli
(§5) The THRα LBD and THRβLBD overexpression vectors confirmed by sequencing were transfected into E. coli cells BL21 (DE3), and spread on an ampicillin-resistant agar plate. Monoclones were picked out and amplified in an LB medium, and transferred into 1 L LB at a ratio of 1:100 for large-scale culture. When the OD value was at 0.8 to 1.2, 0.5 mM isopropyl-beta-D-thiogalactopyranoside (IPTG) was added, and induced overnight at 18° C. The bacteria were harvested, disrupted, and purified via the GST column and the molecular sieve to obtain two proteins His-GST-dLBT-THRα LBD and His-GST-dLBT-THRβLBD.
(§6) 3. Preparation of Compounds and Formulation of Reaction System
(§7) The proteins were taken out from a refrigerator at −80° C. The protein s with the GST-tagged THRα/p LBD domain and the Eu-labelled GST antibodies were thawed slowly on ice, and an assay buffer containing a final concentration of 5 mM dithiothreitol (DTT) was formulated.
(§8) 3.1 Preparation of Compounds
(§9) The starting concentration of the compound was 10 μM (in DMSO). The compound (100 μM in DMSO) was subjected to 3-fold isogradient dilution with DMSO to obtain a total of 11 isogradient concentrations. Subsequently, the above compounds at the isogradient concentration were further subjected to 50-fold dilution with an assay buffer containing 5 mM DTT.
(§10) 3.2 Formulation of THR-FRET Reaction System
(§11) The final concentrations of all components were calculated based on a system with a final volume of 20 µL per well. To […] of assay buffer containing 5 mM DTT, the GST-tagged THRα/β proteins, the SRC2 ([…]) polypeptide, XL665 (Cisobio, #610SAXLB), and the Eu-labeled GST antibody were added, and the final concentrations were 2 nM, 200 nM, 0.05 nM, and 7.6 nM respectively to formulate 18 μL of reaction mixture of the proteins, polypeptide, and antibody per well.
(§12) 18 μL of reaction mixture and 2 μL of diluted compound were added into an optiplate-384-well plate, and reacted at room temperature for 24 h.
(§13) The plate was read using an MD i3x multi-mode microplate reader with the excitation and emission wavelengths of 340 nm and 665 nm, respectively. The intensity of light at a wavelength of 616 nm generated by europium excited by 340 nm wavelength light from the MD i3x multi-mode microplate reader was used as the background. According to the different activation degrees of different compounds against THRα and THRβ, the intensity of the emission light at a wavelength of 665 nm generated by exciting XL665 with the exciting light at a wavelength of 616 nm was varied. The intensity ratio between these two light wavelengths (665 nm, 616 nm) was used as the activation activity of the compound against THRα or THRβ, and was normalized against the ratio in the vehicle DMSO group. The dose-response curve was fitted with four parameters using the GraphPad Prism 6.0 software, and the EC50 value was calculated.

[2] = molecular target: T2, THRβ (pGAL4-THRβ-LBD) (Homo sapiens, UniProt P10828); experiment: Reporter gene (Dual-Glo luciferase) agonist activity assay in HEK293T cells, THRβ; format: cell-based; settings: ratio of EC50 THRα/THRβ
T2 construct: expressed in transfected cells; host or cells: HEK293T
T2 sequence (P10828 217-461): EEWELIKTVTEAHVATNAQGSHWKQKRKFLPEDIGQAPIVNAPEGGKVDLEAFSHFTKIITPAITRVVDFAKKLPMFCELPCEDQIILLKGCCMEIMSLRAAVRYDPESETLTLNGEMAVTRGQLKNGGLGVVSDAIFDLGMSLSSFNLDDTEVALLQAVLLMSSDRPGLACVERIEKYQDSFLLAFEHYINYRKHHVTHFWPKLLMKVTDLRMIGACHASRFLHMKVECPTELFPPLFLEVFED
Source text: Experimental Example 2: Detection of Agonist Activities of Compounds Against THRα and THRβ Based on Reporter Gene Activity Assay Method
1.1 Construction and Preparation of Plasmids pGAL4-THR-LBD and pG5-Luc
The pGAL4-THRα-LBD and pGAL4-THRβ-LBD plasmids used in the reporter gene assay system were constructed by a conventional molecular cloning method comprising the following main steps: the cDNA sequences of THRα (NM_003250) and THRβ(NM_000461) corresponding to the amino acid sequences of THRα (163-407AA) and THRβ(217-461AA) were inserted into the BamHI and NotI enzyme digestion sites of the pGAL4 vector by the PCR technique respectively to obtain the pGAL4-THRα-LBD and pGAL4-THRβ-LBD plasmids; the pG5-Luc (#E249A) and pRL-TK (#E2241) plasmids were purchased from Promega; the plasmids were transfected into the E. coli DH5a by the CaCl2 method, and after further culture and amplification, the plasmids were purified by Plasmid Extraction Kits (TIANGEN, #D107) to obtain the corresponding plasmid DNAs.
1.2 Co-Transfection of Plasmids into HEK293T Cells and Treatment with Compounds
The HEK293T cells were inoculated into a 96-well plate at a density of 1×10^4/well the day before plasmid transfection. Cell transfection was conducted according to the instructions of the transfection reagent FuGENE® HD (Promega, #E2311). The main steps were as follows: taking one well as an example here, the plasmids pGAL4-THRα-LBD or pGAL4-THRβ-LBD, pG5-Luc, and pRL-TK were added in the proportions of 20 ng, 50 ng, and 5 ng to 10 μL of Opti-MEM™ I medium (Gibco, #11058021) and mixed well; subsequently, 0.25 μL of FuGENE® HD was added, mixed well, and then left at room temperature for 5 min; afterwards, […] was added to the cell wells containing 100 μL of culture medium. After cell co-transfection for 6 h, the compound was diluted in a 3-fold gradient with dimethyl sulfoxide at the highest concentration of 1 μM. The compound was added to the cell culture medium at a total of 10 concentrations for treatment for 24 h. There were a total of two duplicate wells for each concentration. Triiodothyronine (T3) was used as the positive control.
1.3 Dual-Glo Luciferase Assay
After the cells were treated with the compound for 24 h, the cells were assayed according to the instructions of Dual-Glo® Luciferase Assay System (Promega, #E2940). The main steps were as follows: 50 μL of culture medium was aspirated from each well and discarded, and then 50 μL of Dual-Glo® Luciferase reagent was added and oscillated at room temperature for 10 min; 80 μL of lysis reaction solution was measured into a white opaque optiPlate-96-well plate, and the luminescence signal value (Firefly-Luc) of the Firefly luciferase was detected using an MD i3x multi-mode microplate reader; 40 μL of Dual-Glo® Stop & Glo® reagent was then added, and oscillated at room temperature for 10 min; the luminescence signal value (Renilla-Luc) of the Renilla luciferase was then detected using an MD i3x multi-mode microplate reader. The Firefly-Luc/Renilla-Luc ratio was used as the activation activity of the compound against THR, and was normalized against the ratio in the vehicle DMSO group; the dose-response curve was fitted with four parameters using the GraphPad Prism6.0 software, and the EC50 value was calculated.

[3] = molecular target: T3, THRβ LBD (His-GST-dLBT-THRβLBD) (Homo sapiens, UniProt P10828); experiment: THR-FRET (time-resolved fluorescence resonance energy transfer) agonist activity assay, THRβ; format: biochemical; settings: for EC50: 24 h at room temperature; for Selectivity (THRα/THRβ): ratio of EC50 THRα/THRβ
T3 construct: made in house; host or cells: E. coli BL21 (DE3)
T3 sequence (P10828 217-461 limits assumed): T2 sequence (P10828 217-461)
Source text: as §1, §2, §3, §4, §5, §6, §7, §8, §9, §10, §11, §12, §13

Structure (SMILES) | EC50 [1] | Selectivity (THRα/THRβ) [2] | EC50 [3] | Selectivity (THRα/THRβ) [3]
Cc1cccc2c1c(=O)ccn2Cc1c(Cl)cc(-n2ncc(=O)[nH]c2=O)cc1Br [Compound 17] | 100 to 1000 nM | ††† (20 ≥ THRα/β > 10) | < 50 nM | †† (10 > THRα/β > 1)
O=c1cnn(-c2cc(Br)c(Cn3ccc(=O)c4ccccc43)c(Br)c2)c(=O)[nH]1 [Compound 2] | 100 to 1000 nM | † (5 ≥ THRα/β) | < 50 nM | †† (10 > THRα/β > 1)
